Experimental data reported in patent publication US11779555B2, “Combination of immunotherapy with local chemotherapy for the treatment of malignancies” (THE JOHNS HOPKINS UNIVERSITY, priority 2015, dated 2023).

Legend:
[1] = tested on: bone marrow cells; assay: Bone marrow cellularity and CD45+ leukocytes; assay type: in vivo, C57BL/6J mice
Source text: (§1) Appropriate isotype controls were used.

[2] = tested on: effector memory T cells; assay: IFNγ production of memory T cells after re-challenge; assay type: in vivo, mice; settings: twenty days after re-challenge, PMA/Ionomycin stimulation
Protocol: as §1
Re-challenge experiments: Tumor burden was assessed weekly with IVIS imaging. Mice were considered “cured” of their brain tumors following initial treatment if no evidence of tumor was present at consecutive IVIS imaging sessions, and mice were further considered long-term survivors if no tumor was detected 90 days post implantation. Long-term survivors from each experimental group were re-challenged 90 days post implantation with 300,000 GL-261 LUC cells injected intracranially in the contralateral hemisphere. Cells were prepared in […]. Naïve mice were implanted in parallel as controls, and mice were followed with weekly IVIS imaging.

[3] = tested on: intracranial GL-261 LUC gliomas; assay: Survival of mice with intracranial GL-261 gliomas; assay type: in vivo, C57BL/6J mice; settings: Example 3; chemotherapy at day 14, post anti-PD1
Protocol: Tumor model: Female C57BL/6J mice (The Jackson Laboratory, Bar Harbor, Me.), 6 to 8 weeks old, were implanted (Day 0) with GL-261 LUC cells to establish intracranial gliomas, as previously described (Zeng et al., 2013). Briefly, mice were anesthetized with ketamine/xylazine (100 mg/kg ketamine, 10 mg/kg xylazine) and a small midline incision was made to expose the skull. A burr hole was then drilled directly over the striatum and 130,000 GL-261 LUC cells were implanted at a depth of 3 mm from the cortical surface. The tumor take rate was 100%. Day 7 post implantation, mice were imaged to assess the progress of tumor growth using an IVIS platform (In Vivo Imaging System, Caliper Life Sciences, Hopkinton, Mass.). Mice were then stratified into experimental treatment groups based on luminescence. Each treatment group had 5 to 15 mice in the survival experiments. […]
Surgical procedure: polymer implantation: Mice in the LC or EP treatment groups were anesthetized with ketamine/xylazine (100 mg/kg ketamine, 10 mg/kg xylazine). […] Mice were monitored for a period of 30 min after recovery for signs of neurological deficits. […]
Statistics: Survival was plotted using Kaplan-Meier curves, and curves were analyzed with the log-rank Mantel-Cox test using GraphPad Prism software (GraphPad Software, La Jolla, Calif.). […]

[4] = tested on: CD3+ blood lymphocytes; assay: Circulating CD3+ lymphocytes in peripheral blood (serial blood draws); assay type: in vivo, C57BL/6J mice; settings: Day 30 post implantation, end of regimen, lasting at least 2 weeks
Protocol: Peripheral blood was collected by cardiac puncture before harvesting other tissues at day 21 and 30. A total of 600 μL was collected from each mouse in heparin-coated tubes (BD Biosciences, Franklin Lakes, N.J.). Blood was mixed with PBS in a 1:1 ratio and overlaid onto a Ficoll-Paque Plus (GE Healthcare) base in a 1:3 ratio. After centrifugation, peripheral lymphocytes were extracted from the resulting horizon and were washed twice with PBS. In addition to the blood draws performed on days 21 or 30 post implantation, blood draws were also performed on days 26 and 41 post implantation. On these days, blood was taken via tail vein sampling and 100 μL of blood was collected for every mouse. Red blood cells were lysed using RBC Lysis Buffer (eBioscience) and subsequently stained with CD3 FITC Clone: 17A2 (eBioscience). All flow cytometry experiments were performed on a LSRII (BD Biosciences) and analysis was performed using FlowJo software (TreeStar, Ashland, Oreg.).

[5] = tested on: GL-261 LUC cells in the contralateral hemisphere; assay: Tumor re-challenge of long-term survivors; assay type: in vivo, mice
Protocol: Re-challenge experiments: Tumor burden was assessed weekly with IVIS imaging. Mice were considered “cured” of their brain tumors following initial treatment if no evidence of tumor was present at consecutive IVIS imaging sessions, and mice were further considered long-term survivors if no tumor was detected 90 days post implantation. […] Cells were prepared in 14 of PBS. Naïve mice were implanted in parallel as controls, and mice were followed with weekly IVIS imaging.

[6] = tested on: adoptively transferred ova specific (CD45.2) T cells; assay: Adoptive transfer of OT-I lymphocytes in GL-261 ova tumor bearing mice; assay type: in vivo; settings: four days after adoptive transfer, three days after initiation of chemotherapy
Source text: Adoptive transfer experiments: For the adoptive transfer experiments, 5 week old female B6.SJL-Ptprca Pepcb/BoyJ mice expressing the congenic marker CD45.1 were used as the recipient mice. Inbred C57BL6/J (B6), B6.129S7-Rag1tm1Mom/J (RAG^−/−), B6.SJL-Ptprcb Pepcb/BoyJ (CD45.2) and C57BL/6-Tg(TcraTcrb)1100Mjb/J (OT-I) mice were purchased from The Jackson Laboratory. 6-8 weeks old female RAG−/− OT-I CD45.2 transgenic mice were used as the donor mice.
RAG−/− OT-I CD45.2 mice were lethally anesthetized and their spleens were harvested and passed through a 40-μM nylon mesh. Red blood cell lysis buffer was consecutively applied to remove red blood cells. Cells were counted, checked for their viability, and washed twice with PBS. Two million cells were transferred in 100 uL of PBS for every recipient mouse via retro-orbital injection.
Mice were implanted with 300,000 Gl-261-ova-luc cells at day 0 and RAG−/− OT-I CD45.2 lymphocytes were transferred at day 13: 1 day before starting treatment with chemotherapy. The experimental schedule of the GL-261-ova tumor experiments is explained in detail in FIG. 1.
as §1

[7] = tested on: OT-I T cells; assay: In vivo proliferation of adoptively transferred OT-I T cells in the spleen; design: species or system mice; settings: three days after the transfer
Protocol: For in vivo cell proliferation tracing, OT-I RAG−/− splenocytes were labeled with cell proliferation dye eFluor450 (eBioscience, San Diego, Calif.) in the following way: Lymphocytes were isolated from spleen cells, their viability was checked post-isolation, and viable lymphocytes were washed with HBSS without Ca^2+ or Mg^2+ once in preparation for the staining. A 10 μM solution of the cell proliferation dye was made in HBSS without Ca^2+ and Mg^2+. After washing the isolated cells, the cells were reconstituted by adding the 10 μM dye solution to a concentration of 5×10^6 cells/mL. While the solution was added to the cells, the tube was gently vortexed to ensure homogeneous uptake of the dye by all cells.
The cells were incubated for 8 min in the dark at room temperature. Cells were quenched with 20 mls of HBSS with 20% FBS and were then spun at 1400 rpm for 5 min at 4° C. Cells were washed with HBSS without FBS an additional two times and cells were checked for viability. Cells were resuspended with HBSS (w/o FBS) to a concentration of 10×10^6 cells/mL. The cells were passed through a […] cell strainer to ensure they were in a single cell suspension and 100 μL of the cell suspension was injected retro-orbitally in the recipient mice immediately.

[8] = tested on: tumor infiltrating lymphocytes; assay: Flow cytometric analysis of tumor infiltrating lymphocytes (TILs)
Source text: (§2) Flow cytometric analysis of tumor infiltrating immune cells and peripheral lymphoid cell populations: At day 21 or day 30 post tumor implantation, mice were sacrificed using a lethal dose of ketamine/xylazine cocktail. The spleen, brain, cervical lymph nodes (LN), and bone marrow were harvested and passed through a 40-μm strainer. A 30%-37%-60% Percoll gradient (GE Healthcare, Buckinghamshire, UK) was used to isolate immune cell populations from brain tumors and the draining LNs. After centrifugation, the 37%-60% interface contained lymphocytes, monocytes, and microglia in the case of brain tumors, and lymphocytes and monocytes in the case of draining LNs.
(§3) Lymphocytes from all tissues were stimulated with PMA-Ionomycin and Golgi stop (eBioscience) for 4-6 hours in a 37° C. humidified incubator maintained at 5% CO2. […] For the memory T cells, lymphocytes were stained with CD62L PE (BD Biosciences) and CD44 BV421 (BD Biosciences). […] Appropriate isotype controls were used. For the adoptive transfer experiment, CD45.2 PE Clone: 104 (eBioscience) was used to stain the isolated lymphocytes.

[9] = tested on: lymphocytes of draining lymph nodes, spleen and blood; assay: Flow cytometric analysis of draining lymph nodes and peripheral lymphoid organs
Source text: as §2, with “Flow cytometric analysis of tumor infiltrating immune cells and peripheral lymphoid cell populations: At day 21 or day 30 post tumor implantation, mice were sacrificed using a lethal dose of ketamine/xylazine cocktail.” left out
as §3

O=NN(CCCl)C(=O)NCCCl [i.p. BCNU, BCNU] was tested, and the “myelotoxicity (BM cellularity and CD45 leukocytes vs control)” value ([1]; Example 2) was “late myelotoxicity”, the “CD45+ bone marrow cells (leukocytes) vs control, LC or LC+anti-PD1” value ([1]; Example 3) was “decreased cell numbers” and the “bone marrow cellularity (live-dead staining)” value ([1]; Example 3) was “significant decrease in cellularity”. For the same molecule, the “IFNγ production of CD8+CD44[high]CD62L[low] cells from DLNs, spleen or peripheral blood” value [2] was “dysfunctional IFNγ production”, the median survival [3] was 45 days and the “CD3+ lymphocytes in peripheral blood” value [4] was “severely lymphodepleted”. The “size of the spleen at necropsy vs LC and anti-PD1 treated mice” value ([5]; experimental day 104) was “significantly decreased”, the “tumor growth after re-challenge in the contralateral hemisphere” value ([5]; long term survivors) was “not able to inhibit tumor growth” and the “CD3+CD45.2+ cells within the tumor microenvironment” value [6] was 4%. The “CD3+CD45.2+ transferred cells in the DLNs” value [6] was 3%, the “OT-I cells divided (dilution of cell proliferation dye)” value [7] was 29.9% and the “percent of CD4+FoxP3+ regulatory cells (Tregs) in TILs” value ([8]; day 21) was 55%. The “percentage of recovered CD8+ TILs producing IFNγ” value ([8]; day 21) was 35%, the “density of CD3+ TILs (number of cells normalized by tumor volume)” value ([8]; day 30 post implantation) was 40 cells and the “CD3+ cells and CD8+ IFN-γ+ cells in draining lymph nodes” value ([9]; Example 3) was “lymphodepletion of both CD3+ cells and CD8+ IFN-γ+ cells”. The “lymphocytes recovered from spleen, LN and blood vs untreated or LC treated mice” value ([9]; cured mice, 4 months from tumor implantation) was “decreased number of recovered lymphocytes”.
